US20080176889A1, “9-anilinoacridine alkylating agents” (priority 2004, published 2008)
Where a name gives a salt, the structure may show the parent alone. Read-outs that look alike come from different tables or passages of the source.

Tests used:
DNA = DNA binding observed in the Topo II relaxation comparison; conditions: seen in Topo II relaxation comparison
A549 = experiment: SRB cytotoxicity assay, solid tumor cells A549; assay type: cell-based, human; conditions: for IC50: Homo sapiens, A549, SRB
HCT-116 = experiment: SRB cytotoxicity assay, solid tumor cells HCT-116; assay type: cell-based; conditions: Homo sapiens, HCT-116, 72 h, read-out: IC50 HCT-116
[1] = tested on: human lymphoblastic leukemic cells (CCRF-CEM); experiment: XTT-tetrazolium cytotoxicity assay, CCRF-CEM; assay type: cell-based; conditions: for IC50: Homo sapiens, 72 h
Protocol: (§1) The effects of the compounds on cell growth were determined in all human tumor cells (i.e. T-cell acute lymphocytic leukemia CCRF-CEM), in a 72 h incubation, by XTT-tetrazolium assay, as described by Scudiero et al., Cancer Res. 1988, 48, 4827-4833. After the addition of phenazine methosulfate-XTT solution at 37° C. for 6 h, absorbance at 450 and 630 nm was detected on a microplate reader (EL 340; Bio-Tek Instruments Inc., Winooski, Vt.). Six to seven concentrations of each compound were used. The IC50 and dose-effect relationships of the compounds for antitumor activity were calculated by a median-effect plot (see, e.g., Chou et al. Adv. Enzyme Regul. 1984, 22, 27-55) using a computer program on an IBM-PC workstation (see, e.g., Chou et al. Dose-Effect Analysis with Microcomputers: Quantitation of ED50, LD50, Synergism, Antagonism, Low-Dose Risk, Receptor-Ligands Binding and Enzyme Kinetics; Biosoft: Cambridge, U.K., 1987).

CCRF-CEM/Taxol = experiment: XTT cytotoxicity assay, taxol-resistant subline; assay type: cell-based, human
Protocol: as §1
(§2) Data summarizing the growth inhibition of human lymphoblastic leukemic cells (CCRF-CEM) and its drug-resistant sublines (resistant to vinblastine and taxol, CCRF-CEM/VBL and CCRF-CEM/taxol, respectively) by compound 37 is shown in Table 4.

Topo II = experiment: Topo II-mediated relaxation of pRYG-DNA; assay type: biochemical
[2] = tested on: human mammary carcinoma (MX-1) xenografts; experiment: MX-1 xenograft in nude mice; assay type: in vivo; conditions: for Average Body Weight: D11 (start of treatment, baseline weight)
Protocol: (§3) Athymic nude mice bearing the nu/nu gene were used for human breast tumor MX-1 xenograft. Outbred Swiss-background mice were obtained from Charies River Breeding Laboratories. Male mice 8 weeks old or older weighing 22 g or more were used for most experiments. Drug was administrated via the tail vein by i.v. injection. Tumor volumes were assessed by measuring length×width×height (or width) by using caliper. Vehicle used was 20 μl DMSO in 180 μl saline. All animal studies were conducted in accordance with the guidelines of the National Institutes of Health Guide for the Care and Use of Animals and the protocol approved by the Memorial Sloan-Kettering Cancer Center's Institutional Animal Care and Use Committee.

[3] = tested on: human T-cell lymphoblastic leukemic lymphoma xenografts (CCRF-CEM); experiment: CCRF-CEM xenograft in nude mice; assay type: in vivo
Protocol: as §3
Table 6 summarizes data related to the therapeutic effects and toxicity of compound 37 in nude mice bearing human T-cell leukemic lymphoma CCRF-CEM xenografts. About 70% of average tumor sized was reduced at the dose of 2 mg/kg (Q3D×5).

CCRF-CEM/VBL = experiment: XTT cytotoxicity assay, vinblastine-resistant subline; assay type: cell-based, human
Protocol: as §1, §2

[4] = number in bracket, ratio of IC50's
[5] = 3 mg/kg Q4Dx5 i.v., column D17, marked (D15)
[6] = 3 mg/kg Q4Dx5 i.v., column D20, marked (D19)

OCc1cc(Nc2c3ccccc3nc3ccccc23)cc(OCCN(CCCl)CCCl)c1 [Compound 37, (3-(Acridin-9-ylamino)-5-{2-[bis(2-chloroethyl)amino]ethoxy}phenyl)methanol]
binding to DNA (DNA): binds relatively tightly to DNA | IC50 (A549; 72 hours incubation, read-out: IC50 A549): 5.6 ± 1.2 nM | IC50 (A549; incubation for 3 hours, washed, then incubated for a total of 72 hours (footnote b), read-out: IC50 A549 after washing): 5 nM | alteration of potency when drug washed away (A549; washed away after incubation for 24 h): no alteration of the potency | IC50 (HCT-116): 5.5 ± 1 nM | cytotoxicity relative to AHMA [1]: about 79 fold | IC50 [1]: 7 nM | IC50 ([1]; read-out: IC50 CCRF-CEM): 9.5 ± 2.5 nM | cross-resistance to taxol (CCRF-CEM/Taxol; CCRF-CEM/taxol vs CCRF-CEM): does not develop cross-resistance | IC50 (CCRF-CEM/Taxol; Homo sapiens, CCRF-CEM, 72 h, read-out: IC50 CCRF-CEM/Taxol): 34 ± 13 nM | folds of resistance CCRF-CEM/Taxol vs CCRF-CEM parent cells (CCRF-CEM/Taxol; [4]): 1.3 × | Topo II-mediated relaxation of pRYG-DNA (Topo II): inhibited DNA relaxation | Average Body Weight ([2]; 3 mg/kg Q4Dx5 i.v.): 30.1 gm | Average Body Weight Change ([2]; 3 mg/kg Q4Dx5 i.v., D14): −3.5 gm | Average Body Weight Change ([2]; 3 mg/kg Q4Dx5 i.v., D23): −7.2 gm | Average Tumor Size (T/C) ([2]; 3 mg/kg Q4Dx5 i.v., D23): 0.01 | Tumor free ([2]; 3 mg/kg Q4Dx5 i.v., animals tumor free/total (D27, 28)): 2/3 | Average Body Weight Change [2, 5]: −3.3 gm | Average Tumor Size (T/C) [2, 5]: 0.26 | Average Body Weight Change [2, 6]: −4.7 gm | Average Tumor Size (T/C) [2, 6]: 0.03 | Average Body Weight Change ([2]; 3 mg/kg Q4Dx5 i.v., column D26, marked (D27)): −8.8 gm | Toxicity (death) ([2]; 3 mg/kg Q4Dx5 i.v., deaths/total (D27, 28, 29)): 3/3 | mice becoming tumor-free ([2]; 1-2 mg/kg (Q3DX7) or 3 mg/kg (Q4D×5), intravenous injection, n=3): 66.7% | Average Body Weight ([2]; 1-2 mg/kg Q3Dx7 i.v.): 28.3 gm | Average Body Weight Change ([2]; 1-2 mg/kg Q3Dx7 i.v., D14): +1.2 gm | Average Body Weight Change ([2]; 1-2 mg/kg Q3Dx7 i.v., D17): −1.4 gm | Average Tumor Size (T/C) ([2]; 1-2 mg/kg Q3Dx7 i.v., D17): 0.37 | Average Body Weight Change ([2]; 1-2 mg/kg Q3Dx7 i.v., D20): −3.0 gm | Average Tumor Size (T/C) ([2]; 1-2 mg/kg Q3Dx7 i.v., D20): 0.17 | Average Body Weight Change ([2]; 1-2 mg/kg Q3Dx7 i.v., D23): −3.0 gm | Average Tumor Size (T/C) ([2]; 1-2 mg/kg Q3Dx7 i.v., D23): 0.14 | Average Body Weight Change ([2]; 1-2 mg/kg Q3Dx7 i.v., D26): −3.9 gm | Tumor free ([2]; 1-2 mg/kg Q3Dx7 i.v., animals tumor free/total (D32.32)): 2/3 | Toxicity (death) ([2]; 1-2 mg/kg Q3Dx7 i.v., deaths/total): 0/3 | average tumor size reduced ([3]; 2 mg/kg (Q3D×5)): About 70% | Average Body Weight ([3]; 2 mg/kg Q3Dx5 i.v., D10 (start of treatment, baseline weight)): 29.4 gm | Average Body Weight Change ([3]; 2 mg/kg Q3Dx5 i.v., D13): −1.1 gm | Average Body Weight Change ([3]; 2 mg/kg Q3Dx5 i.v., D16): −4.2 gm | Average Tumor Size (T/C) ([3]; 2 mg/kg Q3Dx5 i.v., D16): 0.47 | Average Body Weight Change ([3]; 2 mg/kg Q3Dx5 i.v., D19): −3.3 gm | Average Tumor Size (T/C) ([3]; 2 mg/kg Q3Dx5 i.v., D19): 0.34 | Average Body Weight Change ([3]; 2 mg/kg Q3Dx5 i.v., D22): −5.9 gm | Average Tumor Size (T/C) ([3]; 2 mg/kg Q3Dx5 i.v., D22): 0.33 | Average Body Weight Change ([3]; 2 mg/kg Q3Dx5 i.v., D25): −6.8 gm | Average Tumor Size (T/C) ([3]; 2 mg/kg Q3Dx5 i.v., D25): 0.34 | Tumor free ([3]; 2 mg/kg Q3Dx5 i.v., animals tumor free/total): 0/3 | Toxicity (death) ([3]; 2 mg/kg Q3Dx5 i.v., deaths/total): 0/3 | cross-resistance to vinblastine (CCRF-CEM/VBL; CCRF-CEM/VBL vs CCRF-CEM): does not develop cross-resistance | IC50 (CCRF-CEM/VBL; Homo sapiens, CCRF-CEM, 72 h, read-out: IC50 CCRF-CEM/VBL): 7.5 nM | folds of resistance CCRF-CEM/VBL vs CCRF-CEM parent cells (CCRF-CEM/VBL; [4]): 0.53 ×

Cc1cccc2c(Nc3ccc(OCCN(CCCl)CCCl)cc3)c3cccc(C(=O)NCCN(C)C)c3nc12 (as salt: salt) [Compound 44, 9-(4-{2-[Bis(2-chloroethyl)amino]ethoxy}phenylamino)-5-methylacridin-4-carboxylic acid (2-dimethylaminoethyl)amide]
melting point: 185 to 186 °C
